According to patent publication US20170273949A1, “AGENT FOR PREVENTING AND/OR TREATING OPHTHALMOLOGIC DISEASES” (MITSUBISHI TANABE PHARMA CORPORATION, priority 2014, published 2017):

Key:
[1] = tested on: mouse models induced to have choroidal neovascularization (CNV) by laser irradiation (CNV models); assay: laser-induced choroidal neovascularization (CNV) mouse model, area of CNV; assay type: in vivo; settings: mice; 3 mg/kg or 10 mg/kg edaravone into the caudal vein immediately after laser irradiation; choroidal flat mount 14 days after irradiation; FIG. 1A, 1B
Protocol: In such CNV models, macrophages migrate as a result of provocation of inflammation by laser irradiation. Consequently, VEGF is generated, and new blood vessels are formed.
A 10-fold dilution of a mixed anesthetic solution of ketamine and xylazine (7:1) was administered at a dose of 10 mL/kg into the femoral muscle of each mouse, and one eye was then irradiated with laser at 6 sites with equal intervals on the circumference of discus nervi optici (wave length: 647 nm, spot size: 50 μm, irradiation time: 100 msec, and laser output: 120 mW). Immediately after the laser irradiation, 3 mg/kg edaravone, 10 mg/kg edaravone, or 10 mL/kg normal saline was administered into the caudal vein of each mouse. Thereafter, fundus photography was carried out using a fundus camera. Fourteen days after the laser irradiation, a 10-fold dilution of Fluorescite (registered trademark) Injection Solution No. 1 was administered at a dose of 0.5 mL/kg into the caudal vein under the same anesthesia as described above, and fluorescein fundus photography was then carried out using a fundus camera. […] The expression of CNV was evaluated by choroidal flat mount. Using a confocal laser scanning microscope, the CNV was photographed, and the area of CNV was then measured. […]

[2] = tested on: human retinal microvascular endothelial cells (HRMECs); assay: VEGF-induced cell growth of HRMECs (cell counting kit-8); assay type: cell-based; settings: edaravone 1, 10 or 100 μM added 1 hour before VEGF 10 ng/mL, 24 hours, control without VEGF = 100%, FIG. 2
Protocol: Using CSC Complete Recombinant Medium, human retinal microvascular endothelial cells (HRMECs) were plated at a cell density of 2×10^3 cells/well on a 96-well plate. Twenty-four hours after plating, the medium was exchanged with a CSC medium containing 10% fetal bovine serum (FBS). Then, twenty-four hours after the medium exchange, edaravone was added in a final concentration of 1, 10 or 100 μM to an edaravone addition group. One hour after the addition of edaravone, to a vascular endothelial growth factor (VEGF) addition group, VEGF was added in a final concentration of 10 ng/mL. Twenty-four hours after the addition of VEGF, in order to remove the reagent and VEGF, the medium was exchanged again with a CSC medium containing 10% FBS. After completion of the medium exchange, cell counting kit-8 was added, and the absorbance at 450 nm was then measured (defined as “measurement value 1”). Three hours after the measurement of the absorbance, the second absorbance measurement was carried out (defined as “measurement value 2”). The measurement value 1 was subtracted from the measurement value 2, and the obtained value was then corrected, using a control group, to which VEGF had not been added, as 100%. The thus obtained value was defined as a growth rate. The cells were cultured under conditions of 37° C. and 5% CO2, except for the operations.

CC1=NN(c2ccccc2)C(=O)C1 [edaravone, 3-methyl-1-phenyl-2-pyrazolin-5-one]
CNV formation (area of CNV) [1]: inhibited | cell growth induced by VEGF (growth rate) [2]: suppressed
